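Where inhibition never reached the appropriate level, the endpoint shown equals the highest concentration tested. Otherwise, values were interpolated linearly from a five-concentration, 48-hour dose response in 96-well plates. Abbreviation: GI50, concentration required for 50% inhibition of growth. Definition used: TGI = concentration required for complete inhibition of growth.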
Tests used:
Experiment in all cases: DTP human tumour cell line panel, 48 h
DU-145 prostate = tested on: DU-145 prostate
SR leukemia = tested on: SR leukemia
MALME-3M melanoma = tested on: MALME-3M melanoma
K-562 leukemia = tested on: K-562 leukemia
SN12C renal = tested on: SN12C renal
MDA-MB-435 = tested on: MDA-MB-435
MCF7 breast = tested on: MCF7 breast
BT-549 breast = tested on: BT-549 breast
CCRF-CEM leukemia = tested on: CCRF-CEM leukemia
HCT-116 colon = tested on: HCT-116 colon
A498 renal = tested on: A498 renal
TK-10 renal = tested on: TK-10 renal
HCC-2998 colon = tested on: HCC-2998 colon
ACHN renal = tested on: ACHN renal
XF 498 CNS = tested on: XF 498 CNS

CO/C(=N/N1CC1C(F)(F)F)c1ccncc1 (centres undefined)
TGI (DU-145 prostate): > 100 µM
TGI (SR leukemia): > 100 µM
TGI (MALME-3M melanoma): > 100 µM
TGI (K-562 leukemia): > 100 µM
TGI (SN12C renal): > 100 µM
TGI (MDA-MB-435): > 100 µM
TGI (MCF7 breast): > 100 µM
TGI (BT-549 breast): > 100 µM
TGI (CCRF-CEM leukemia): > 100 µM
TGI (HCT-116 colon): > 100 µM
TGI (A498 renal): > 100 µM

CCCCOC(=O)CN1C(=O)c2ccccc2C1=O
TGI (SR leukemia): > 100 µM
TGI (MALME-3M melanoma): > 100 µM
TGI (TK-10 renal): > 100 µM
TGI (HCC-2998 colon): > 100 µM
TGI (ACHN renal): > 100 µM
TGI (XF 498 CNS): > 100 µM
TGI (HCT-116 colon): > 100 µM

O=C(CCl)N1CCCCC1C1(c2cc3ccccc3[nH]2)OCCO1 (centres undefined)
TGI (DU-145 prostate): 9.89 µM
TGI (MALME-3M melanoma): 14.5 µM
TGI (TK-10 renal): 10.1 µM
TGI (K-562 leukemia): 15.9 µM
TGI (HCC-2998 colon): 26.9 µM
TGI (SN12C renal): 9.85 µM
TGI (MDA-MB-435): 17.8 µM
TGI (ACHN renal): 13.9 µM
TGI (MCF7 breast): 8.97 µM
TGI (BT-549 breast): 6.83 µM
TGI (HCT-116 colon): 10.2 µM
TGI (A498 renal): 11.8 µM

CN(C)CCOc1cc2c(c3ccccc13)-c1ccccc1C2=O
TGI (MALME-3M melanoma): 5.15 µM
TGI (K-562 leukemia): 4.7 µM
TGI (HCC-2998 colon): 4.68 µM
TGI (SN12C renal): 7.43 µM
TGI (MCF7 breast): 5.6 µM
TGI (CCRF-CEM leukemia): 10.8 µM
TGI (XF 498 CNS): 3.28 µM
TGI (HCT-116 colon): 2.93 µM
TGI (A498 renal): 19.3 µM

C#CCCCC(=C)C[C@H](OCc1ccccc1)[C@H]1OC(=O)[C@@H]1C
TGI (SR leukemia): > 100 µM
TGI (TK-10 renal): > 100 µM
TGI (HCC-2998 colon): > 100 µM
TGI (SN12C renal): > 100 µM
TGI (MDA-MB-435): > 100 µM
TGI (ACHN renal): > 100 µM
TGI (MCF7 breast): > 100 µM
TGI (BT-549 breast): > 100 µM
TGI (CCRF-CEM leukemia): > 100 µM
TGI (A498 renal): > 100 µM

Cc1nc(Nc2nnc(-c3cc([N+](=O)[O-])cc([N+](=O)[O-])c3C)o2)sc1C(=O)CC(=O)Cc1nc2ccc(Cl)cc2[nH]c1=O
TGI (SR leukemia): > 100 µM
TGI (TK-10 renal): > 100 µM
TGI (K-562 leukemia): > 100 µM
TGI (HCC-2998 colon): > 100 µM
TGI (SN12C renal): > 100 µM
TGI (ACHN renal): > 100 µM
TGI (CCRF-CEM leukemia): > 100 µM
TGI (XF 498 CNS): > 100 µM
TGI (HCT-116 colon): > 100 µM
TGI (A498 renal): > 100 µM

COC(=O)c1cccc(NC(=O)Nc2ccc3oc(=O)c4ccccc4c3c2)c1
GI50 (DU-145 prostate): > 100 µM
TGI (DU-145 prostate): > 100 µM
GI50 (SR leukemia): 37 µM
TGI (SR leukemia): > 100 µM
GI50 (K-562 leukemia): > 100 µM
TGI (K-562 leukemia): > 100 µM
GI50 (MCF7 breast): > 100 µM
TGI (MCF7 breast): > 100 µM
GI50 (CCRF-CEM leukemia): 12.1 µM
TGI (CCRF-CEM leukemia): 26.2 µM
